Laboratory results published in ChEMBL document CHEMBL1141231, “Discovery and development of a new class of potent, selective, orally active oxytocin receptor antagonists” (J Med Chem, 2005).
pKi: −log10 of the molar value.

How the values were obtained:
[1] = Solubility in saline; type: physicochemical
[2] = Solubility in aqueous medium; type: physicochemical
Oxytocin receptor = target: T1, Oxytocin receptor (Homo sapiens, UniProt P30559); assay: biochemical; type: cell-based, HEK293-EBNA
T1 sequence (P30559 whole entry): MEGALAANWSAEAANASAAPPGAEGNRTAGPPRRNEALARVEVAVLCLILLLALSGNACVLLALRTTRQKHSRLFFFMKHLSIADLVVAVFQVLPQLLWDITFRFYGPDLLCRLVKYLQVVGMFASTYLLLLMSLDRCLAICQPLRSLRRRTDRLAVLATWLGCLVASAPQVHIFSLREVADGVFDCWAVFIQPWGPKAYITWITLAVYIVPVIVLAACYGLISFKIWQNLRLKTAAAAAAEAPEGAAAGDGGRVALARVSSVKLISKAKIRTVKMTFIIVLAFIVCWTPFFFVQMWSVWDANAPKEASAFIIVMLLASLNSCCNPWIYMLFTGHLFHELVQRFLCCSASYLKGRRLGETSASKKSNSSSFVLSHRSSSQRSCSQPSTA
Description: Displacement of [125I]OVTA antagonist from human oxytocin receptor expressed in HEK293-EBNA cells

Vasopressin V1a receptor [3] = target: T2, Vasopressin V1a receptor (Homo sapiens, UniProt P37288); assay: Displacement of [125I]LVA antagonist from human vasopressin 1a receptor expressed in HEK293-EBNA cells; type: cell-based
Target sequence in this assay (P37288 whole entry): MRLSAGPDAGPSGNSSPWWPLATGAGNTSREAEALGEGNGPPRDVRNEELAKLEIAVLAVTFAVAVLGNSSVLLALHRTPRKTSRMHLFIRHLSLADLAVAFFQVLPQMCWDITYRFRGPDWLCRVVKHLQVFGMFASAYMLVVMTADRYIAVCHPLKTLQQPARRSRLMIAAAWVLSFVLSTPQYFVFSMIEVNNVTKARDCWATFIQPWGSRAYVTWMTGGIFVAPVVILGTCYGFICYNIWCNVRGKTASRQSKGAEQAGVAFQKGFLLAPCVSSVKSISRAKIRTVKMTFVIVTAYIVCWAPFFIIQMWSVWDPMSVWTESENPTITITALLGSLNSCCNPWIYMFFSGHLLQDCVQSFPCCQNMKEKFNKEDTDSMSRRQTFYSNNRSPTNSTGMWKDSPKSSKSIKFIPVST

Vasopressin V1a receptor [4] = target: T2, Vasopressin V1a receptor; conditions: HEK293-EBNA, at 10 µM
Target sequence in this assay (P37288 whole entry, looked up): as the sequence (P37288 whole entry) above
Description: Displacement of [125I]LVA antagonist from human vasopressin 1a receptor expressed in HEK293-EBNA cells at 10 uM

Homo sapiens = species on record: Homo sapiens; assay: Selectivity for human vasopressin V1a receptor over human oxytocin receptor
[5] = aqueous medium, read-out: Solubility

Row | Compound | pKi (Oxytocin receptor) | pKi (Vasopressin V1a receptor [3]) | Ratio Ki (Homo sapiens) | other results
1 | CNCCCC12CCC(c3ccccc31)c1ccccc12.Cl [MAPROTILINE HYDROCHLORIDE] | – | – | – | solubility [1]: 2 µg/mL; solubility ([2]; buffer): 580 µg/mL
2 | CCOc1ccc(S(=O)(=O)N(CC(=O)/N=N/c2c(O)[nH]c3ccc([N+](=O)[O-])cc23)c2ccccc2)cc1 | < 5.00 | < 5.00 | – | –
3 | COc1ccc(S(=O)(=O)N(CC(=O)Nc2cccc(Cl)c2C)c2ccc(C)cc2)cc1OC | 6.21 | – | – | inhibition (Vasopressin V1a receptor [4]): < 50%
4 | COc1ccc(-c2ccc(S(=O)(=O)N(CC(=O)/N=N/c3c(O)[nH]c4ccccc34)c3ccc(C)cc3)cc2)cc1 | < 6.67 | < 5.00 | > 47 | –
5 | CCOc1ccc(S(=O)(=O)N(CC(=O)/N=N/c2c(O)[nH]c3ccc(I)cc23)c2ccccc2)cc1 | < 5.00 | < 5.00 | – | –
6 | CCOc1ccc(S(=O)(=O)N(CC(=O)N/N=C/c2ncc[nH]2)c2ccc(Cl)cc2)cc1 | < 5.00 | < 5.00 | – | –
7 | Cl.O=C(CN(c1ccc(Cl)cc1)S(=O)(=O)c1ccc(OCCN2CCOCC2)cc1)/N=N/c1c(O)[nH]c2ccccc12 | – | – | – | solubility [1]: 2.5 µg/mL; solubility [2, 5]: 127 µg/mL
8 | O=C(CN(c1ccc(Cl)cc1)S(=O)(=O)c1ccccc1)N/N=C/c1ccccc1O | 7.17 | – | – | inhibition (Vasopressin V1a receptor [4]): < 50%
9 | CCOc1ccc(S(=O)(=O)N(CC(=O)N/N=C/c2ccccn2)c2ccc(Cl)cc2)cc1 | 5.56 | 5.73 | 0.67 | –
10 | CCOc1ccc(S(=O)(=O)N(CC(=O)N2Cc3ccccc3CC2C(N)=O)c2ccc(OC)cc2)cc1 (stereo not drawn) | 6.49 | 6.24 | – | Ratio ki (Homo sapiens): 1.8
11 | C/C(=N\NC(=O)CN(c1cccc(Cl)c1)S(=O)(=O)c1ccccc1)c1ccccc1O | 5.31 | 6.22 | – | –
12 | COc1ccc(S(=O)(=O)N(CC(=O)/N=N/c2c(O)[nH]c3ccccc23)c2ccc(Cl)cc2)cc1OC | 7.74 | 6.22 | 33 | –
13 | CCOc1ccc(S(=O)(=O)N(CC(=O)N2Cc3ccccc3CC2CC(N)=O)c2ccc(OC)cc2)cc1 (stereo not drawn) | 6.29 | 5.80 | – | Ratio ki (Homo sapiens): 3.1
14 | COc1ccc(N(CC(=O)Nc2cccc(Cl)c2C)S(=O)(=O)c2ccccc2)cc1 | 7.00 | 6.52 | – | –
15 | COc1ccc(N(CC(=O)N2CCc3ccccc3C2)S(=O)(=O)c2ccccc2)cc1 | 6.80 | 6.94 | – | –
16 | COc1ccc(N(CC(=O)Nc2ccc(Cl)cc2C)S(=O)(=O)c2ccccc2)cc1 | 6.10 | 7.15 | – | –
17 | Cc1c(Cl)cccc1NC(=O)CN(c1ccc(Cl)cc1)S(=O)(=O)c1ccccc1 | 6.80 | < 5.00 | – | –

Row | Compound | pKi (Oxytocin receptor) | pKi (Vasopressin V1a receptor [3]) | Ratio Ki (Homo sapiens) | other results
18 | CCOc1ccc(S(=O)(=O)N(CC(=O)N2Cc3ccccc3C2C(N)=O)c2ccc(OC)cc2)cc1 (stereo not drawn) | 6.11 | 5.80 | 2.1 | –
19 | CCOc1ccc(S(=O)(=O)N(CC(=O)N/N=C/c2ccc(N(CC)CC)cc2O)c2ccc(C)cc2)cc1 | < 5.00 | < 5.00 | – | –
20 | CCOc1ccc(S(=O)(=O)N(CC(=O)N2Cc3ccccc3CC2CC(N)=O)c2ccc(C)cc2)cc1 (stereo not drawn) | – | 5.74 | 3.6 | –
21 | C/C(=N\NC(=O)CN(c1ccccc1)S(=O)(=O)c1ccccc1)c1ccccc1O | 6.63 | < 5.00 | – | –
22 | CCOc1ccc(S(=O)(=O)N(CC(=O)/N=N/c2c(O)[nH]c3ccc(S(=O)(=O)O)cc23)c2ccc(C)cc2)cc1 | < 5.00 | < 5.00 | – | –
23 | CN(C)CCCNC(=O)CCc1ccc(S(=O)(=O)N(CC(=O)/N=N/c2c(O)[nH]c3ccccc23)c2ccc(Cl)cc2)cc1.O=C(O)C(F)(F)F | – | – | – | solubility [1]: < 1 µg/mL; solubility [2, 5]: 20000 µg/mL
24 | CCOc1ccc(S(=O)(=O)N(CCC(=O)/N=N/c2c(O)[nH]c3ccccc23)c2ccc(C)cc2)cc1 | < 5.00 | < 5.00 | – | –
25 | Cc1ccc(N(CC(=O)/N=N/c2c(O)[nH]c3ccccc23)S(=O)(=O)c2ccc(-c3ccccc3)cc2)cc1 | 6.98 | < 5.00 | > 96 | –
26 | Cc1ccc(N(CC(=O)N2CCc3ccccc3C2)S(=O)(=O)c2ccccc2)cc1 | – | 6.49 | – | –
27 | CCOc1ccc(S(=O)(=O)N(CC(=O)N/N=C/c2ccccc2O)c2ccc(Cl)cc2)cc1 | 7.82 | 6.19 | 43 | –
28 | CCOc1ccc(S(=O)(=O)N(CC(=O)/N=N/c2c(O)[nH]c3ccccc23)c2ccccc2)cc1 | 7.44 | < 5.00 | > 275 | –
29 | CCOc1ccc(N(CC(=O)Nc2cccc(Cl)c2C)S(=O)(=O)c2ccccc2)cc1 | < 5.00 | < 5.00 | – | –
30 | Cc1ccc(N(CC(=O)/N=N/c2c(O)[nH]c3ccccc23)S(=O)(=O)c2ccc3ccccc3c2)cc1 | 6.62 | < 5.00 | > 42 | –
31 | CN(C)CCCNC(=O)CCc1ccc(S(=O)(=O)N(CC(=O)/N=N/c2c(O)[nH]c3ccccc23)c2ccc(Cl)cc2)cc1.O=C(O)/C=C/C(=O)O | – | – | – | solubility [1]: 10000 µg/mL; solubility [2, 5]: 20000 µg/mL
32 | CN(C)CCCOc1ccc(S(=O)(=O)N(CC(=O)/N=N/c2c(O)[nH]c3ccccc23)c2ccc(Cl)cc2)cc1.Cl | – | – | – | solubility [1]: 7 µg/mL; solubility [2, 5]: 180 µg/mL
33 | CN(C)CCCOc1ccc(S(=O)(=O)N(CC(=O)/N=N/c2c(O)[nH]c3c(C(=O)O)cccc23)c2ccc(Cl)cc2)cc1 | < 5.00 | < 5.00 | – | –
34 | CCOc1ccc(S(=O)(=O)N(CC(=O)N/N=C(\C)c2ccc(O)cc2O)c2ccc(C)cc2)cc1 | < 5.00 | < 5.00 | – | –

Further lines, with some results ahead:

Row | pKi (Oxytocin receptor) | pKi (Vasopressin V1a receptor [3]) | Ratio Ki (Homo sapiens) | Compound | other results
35 | 5.76 | < 5.00 | – | CCC(C)(C)c1ccc(S(=O)(=O)N(CC(=O)N/N=C2\C(=O)Nc3ccccc32)c2ccc(Cl)cc2)cc1 | –
36 | – | – | > 58 | Cc1ccc(N(CC(=O)N/N=C2\C(=O)Nc3ccccc32)S(=O)(=O)c2cccc3ccccc23)cc1 | –
37 | 7.22 | 5.49 | 54 | CCOc1ccc(S(=O)(=O)N(CC(=O)N/N=C/c2ccccc2O)c2ccc(C)cc2)cc1 | –
38 | < 5.00 | < 5.00 | – | CCOc1ccc(S(=O)(=O)N(CC(=O)N/N=C(\C)c2ccc3ccccc3c2O)c2ccc(C)cc2)cc1 | –
39 | 6.76 | < 5.00 | – | Cc1ccc(N(CC(=O)NN=C2C(=O)Nc3ccccc32)S(=O)(=O)c2cccc3ccccc23)cc1 | –
40 | 7.70 | 6.36 | – | COc1ccc(S(=O)(=O)N(CC(=O)N/N=C2/C(=O)Nc3ccccc32)c2ccc(C)cc2)cc1 | –
41 | 7.21 | 5.31 | 80 | CC(C)(C)c1ccc(S(=O)(=O)N(CC(=O)N/N=C2/C(=O)Nc3ccccc32)c2ccc(Cl)cc2)cc1 | –
42 | 7.74 | 5.40 | 230 | CCCCOc1ccc(S(=O)(=O)N(CC(=O)N/N=C2\C(=O)Nc3ccccc32)c2ccc(Cl)cc2)cc1 | –
43 | < 5.00 | < 5.00 | – | CCOc1ccc(S(=O)(=O)N(CC(=O)N/N=C(\C)c2c(O)ccc3ccccc23)c2ccc(C)cc2)cc1 | –
44 | 7.17 | – | – | Cc1ccc(N(CC(=O)N/N=C/c2ccccc2O)S(=O)(=O)c2ccccc2)cc1 | inhibition (Vasopressin V1a receptor [4]): < 50%
45 | – | – | 22 | COc1ccc(S(=O)(=O)N(CC(=O)N/N=C2\C(=O)Nc3ccccc32)c2ccc(C)cc2)cc1 | –
46 | 7.44 | 5.67 | 60 | CCCc1ccc(S(=O)(=O)N(CC(=O)N/N=C2\C(=O)Nc3ccccc32)c2ccc(Cl)cc2)cc1 | –
47 | 7.68 | 5.43 | 175 | CCCOc1ccc(S(=O)(=O)N(CC(=O)N/N=C2\C(=O)Nc3ccccc32)c2ccc(C)cc2)cc1 | –
48 | 6.49 | 5.96 | 3 | CN(C)CCCOc1ccc(S(=O)(=O)N(CC(=O)N/N=C2\C(=O)N(CC(N)=O)c3ccccc32)c2ccc(Cl)cc2)cc1 | –
49 | 5.86 | < 5.00 | – | CCOc1ccc(S(=O)(=O)N(c2ccc(C)cc2)C(CO)C(=O)N/N=C2\C(=O)Nc3ccccc32)cc1 (stereo not drawn) | –
50 | 6.95 | 5.16 | 62 | Cc1ccc(N(CC(=O)N/N=C2\C(=O)Nc3ccccc32)S(=O)(=O)c2ccc(C#N)cc2)cc1 | –
51 | – | 5.89 | 12 | COC(=O)c1cccc2c1NC(=O)/C2=N\NC(=O)CN(c1ccc(Cl)cc1)S(=O)(=O)c1ccc(OCCCN(C)C)cc1 | –
52 | < 5.00 | < 5.00 | – | CCOc1ccc(S(=O)(=O)N(CC(=O)N/N=C/c2ccccc2NC(C)=O)c2ccc(C)cc2)cc1 | –
53 | < 5.00 | < 5.00 | – | CCOc1ccc(S(=O)(=O)N(CC(=O)N/N=C/c2ccccc2N)c2ccc(C)cc2)cc1 | –
54 | 8.00 | 5.86 | 140 | CCCOc1ccc(S(=O)(=O)N(CC(=O)N/N=C2\C(=O)Nc3ccccc32)c2ccc(Cl)cc2)cc1 | –
55 | 8.06 | 6.21 | 70 | O=C(CN(c1ccc(Cl)cc1)S(=O)(=O)c1ccccc1)N/N=C1\C(=O)Nc2ccccc21 | –
56 | 7.43 | 6.29 | 14 | O=C(CN(c1ccc(Cl)cc1)S(=O)(=O)c1cccs1)N/N=C1\C(=O)Nc2ccccc21 | –
57 | 8.41 | 6.33 | 120 | CCOc1ccc(S(=O)(=O)N(CC(=O)N/N=C2\C(=O)Nc3ccccc32)c2ccc(Cl)cc2)cc1 | –
58 | 6.35 | < 5.00 | – | CCOc1ccc(S(=O)(=O)N(c2ccc(C)cc2)C(C)C(=O)N/N=C2\C(=O)Nc3ccccc32)cc1 (stereo not drawn) | –
59 | 7.05 | – | – | O=C(CN(c1ccccc1)S(=O)(=O)c1ccccc1)N/N=C1\C(=O)Nc2ccccc21 | inhibition (Vasopressin V1a receptor [4]): < 50%
60 | 7.03 | < 5.00 | – | Cc1ccc(N(CC(=O)Nc2cccc(Cl)c2C)S(=O)(=O)c2ccccc2)cc1 | –
